Experimental data as given in patent US4327097A, “Novel penicillins” (Toyama Chemical Co., Ltd., priority 1974, dated 1982).
Converted amounts (≈) assume the structure as drawn. Structures can show the parent of a compound that is named as a salt.

Experiments:
Type in all cases: cell-based
Escherichia coli NIHJ = assay: MIC, plate method, standard strains; conditions: unit assumed; for MIC Esche--richin coil NIHJ: Table 3, standard strain
Procedure: (§1) The minimum inhibitory concentration (MIC) was determined by the plate method disclosed in "Chemotherapy" (Japan), Vol. 16, (1968), pages 98-99. The culture medium used was a Heart infusion agar (pH 7.4). The number of the cells per plate used in the inoculum was 10^4 (10^6 cells/ml).

Klebsiella pneumoniae [1] = assay: MIC, plate method, standard strains; conditions: unit assumed
Procedure: as §1

Proteus vulgaris 3027 = assay: MIC, plate method, standard strains; conditions: unit assumed
Procedure: as §1

[2] = test system: Staphylococcus aureus 209p; assay: MIC, plate method, standard strains; conditions: Table 3, standard strain, Heart infusion agar pH 7.4; unit assumed
Procedure: as §1

Staphylococcus aureus = assay: MIC against clinical isolates; conditions: Table 5-1, clinical isolate; unit assumed
Escherichia coli = assay: MIC against clinical isolates; conditions: unit assumed
Shigella flexneri = assay: MIC against clinical isolates; conditions: Table 5-5, clinical isolate; unit assumed
Procedure: as §1
(§2) MIC was determined in the same manner as in the preceding paragraph (1).

Shigella sonnei = assay: MIC against clinical isolates; conditions: Table 5-5, clinical isolate; unit assumed
Procedure: as §1, §2

[3] = test system: Pseudomonas aeruginosa I.F.O.; assay: MIC, plate method, standard strains; conditions: Table 3, standard strain; unit assumed
Procedure: as §1

Pseudomonas aeruginosa = assay: MIC against clinical isolates; conditions: unit assumed
Klebsiella pneumoniae [4] = assay: MIC against clinical isolates; conditions: Table 6-4, clinical isolate; unit assumed

`CCCCN1CCN(C(=O)N[C@@H](C(=O)N[C@@H]2C(=O)N3[C@@H]2SC(C)(C)[C@@H]3C(=O)O)c2ccccc2)C(=O)C1` [Compound 14] gave an MIC Esche--richin coil NIHJ (Escherichia coli NIHJ) of less than 1.57 µg/mL, an MIC Klebsiella pneumoniae (Klebsiella pneumoniae [1]; Table 3, standard strain) of 3.13 µg/mL (≈ 5.89 µM) and an MIC Proteus vulgaris 3027 (Proteus vulgaris 3027; Table 3, standard strain) of less than 1.57 µg/mL. For the same compound, the MIC Staphylococcus aureus 209p [2] was less than 1.57 µg/mL, the MIC Staphylococcus aureus F-2 (Staphylococcus aureus) was 1.57 µg/mL (≈ 2.95 µM) and the MIC Staphylococcus aureus F-4 (Staphylococcus aureus) was 6.25 µg/mL (≈ 11.8 µM). It also gave an MIC Staphylococcus aureus MS 8588 (Staphylococcus aureus) of 3.13 µg/mL (≈ 5.89 µM), an MIC Staphylococcus aureus MS 8596 (Staphylococcus aureus) of 3.13 µg/mL (≈ 5.89 µM) and an MIC Staphylococcus aureus MS 8684 (Staphylococcus aureus) of 3.13 µg/mL (≈ 5.89 µM). For the same compound, the MIC Staphylococcus aureus MS 8713 (Staphylococcus aureus) was 3.13 µg/mL (≈ 5.89 µM), the MIC Escherichia coli GN 3435 (Escherichia coli; Table 5-2, clinical isolate) was 6.25 µg/mL (≈ 11.8 µM) and the MIC Escherichia coli GN 3452 (Escherichia coli; Table 5-2, clinical isolate) was 6.25 µg/mL (≈ 11.8 µM). For the same compound, the MIC Escherichia coli GN 3481 (Escherichia coli; Table 5-2, clinical isolate) was 6.25 µg/mL (≈ 11.8 µM), the MIC Escherichia coli K-1 (Escherichia coli; Table 5-2, clinical isolate) was 3.13 µg/mL (≈ 5.89 µM) and the MIC Escherichia coli K-4 (Escherichia coli; Table 5-2, clinical isolate) was 6.25 µg/mL (≈ 11.8 µM). It also gave an MIC Shigella flexneri JS 11215 (Shigella flexneri) of 25 µg/mL (≈ 47 µM), an MIC Shigella flexneri JS 11839 (Shigella flexneri) of 3.13 µg/mL (≈ 5.89 µM) and an MIC Shigella sonnei JS 11232 (Shigella sonnei) of 25 µg/mL (≈ 47 µM). It also gave an MIC Shigella sonnei JS 11755 (Shigella sonnei) of 6.25 µg/mL (≈ 11.8 µM).
Compound `CC1(C)S[C@@H]2[C@H](NC(=O)[C@H](NC(=O)N3CCN(C(=O)Nc4ccccc4)C(=O)C3)c3ccccc3)C(=O)N2[C@H]1C(=O)O` [Compound 33] has an MIC Esche--richin coil NIHJ (Escherichia coli NIHJ) of less than 1.57 µg/mL, an MIC Pseudomonas aeruginosa I.F.C [3] of 50 µg/mL (≈ 84.1 µM) and an MIC Staphylococcus aureus 209p [2] of less than 1.57 µg/mL.
Compound `CC1(C)S[C@@H]2[C@H](NC(=O)[C@H](NC(=O)N3CC(=O)N(C(=O)c4ccccc4)CC3=O)c3ccccc3)C(=O)N2[C@H]1C(=O)O` [Compound 34] has an MIC Klebsiella pneumoniae (Klebsiella pneumoniae [1]; Table 3, standard strain) of 50 µg/mL (≈ 84.2 µM), an MIC Proteus vulgaris 3027 (Proteus vulgaris 3027; Table 3, standard strain) of 50 µg/mL (≈ 84.2 µM) and an MIC Pseudomonas aeruginosa I.F.C [3] of 100 µg/mL (≈ 168 µM).
Compound `CC1(C)S[C@@H]2[C@H](NC(=O)[C@H](NC(=O)N3CC(=O)N(Cc4ccccc4)CC3=O)c3ccccc3)C(=O)N2[C@H]1C(=O)O` [Compound 35] has an MIC Pseudomonas aeruginosa I.F.C [3] of 100 µg/mL (≈ 173 µM).
With `CCN1CCN(C(=O)NC(C(=O)NC2C(=O)N3C(C(=O)O)=C(COC(C)=O)CSC23)c2ccccc2)C(=O)C1=O` (centres unmarked) [Compound No. 61] the MIC Pseudomonas aeruginosa GN (Pseudomonas aeruginosa; Table 6-3, clinical isolate, strain number not given) was 25 µg/mL (≈ 43.6 µM) and the MIC Pseudomonas aeruginosa GN4 (Pseudomonas aeruginosa; Table 6-3, clinical isolate) was 12.5 µg/mL (≈ 21.8 µM).
With `CN1CCN(C(=O)N[C@@H](C(=O)N[C@@H]2C(=O)N3C(C(=O)[O-])=C(C[n+]4ccccc4)CS[C@H]23)c2ccccc2)C(=O)C1=O` [Compound No. 68] the MIC Escherichia coli NIHJ (Escherichia coli NIHJ; Table 4, standard strain) was less than 0.79 µg/mL, the MIC Klebsiella pneumoniae (Klebsiella pneumoniae [1]; Table 4, standard strain) was less than 0.79 µg/mL and the MIC Pseudomonas aeruginosa GN4 (Pseudomonas aeruginosa; Table 6-3, clinical isolate) was 12.5 µg/mL (≈ 21.6 µM). The MIC Pseudomonas aeruginosa GN 1035 (Pseudomonas aeruginosa; Table 6-3, clinical isolate) was 50 µg/mL (≈ 86.4 µM) and the MIC Pseudomonas aeruginosa GN 2565 (Pseudomonas aeruginosa; Table 6-3, clinical isolate) was 50 µg/mL (≈ 86.4 µM).
In the case of `CC(=O)N1CCN(C(=O)N[C@@H](C(=O)N[C@@H]2C(=O)N3[C@@H]2SC(C)(C)[C@@H]3C(=O)O)c2ccccc2)C(=O)C1` [Example 1, sodium salt of 6-[D(-)-α-(4-acetyl-2-oxo-1-piperazinocarbonylamino)phenylacetamido]penicillanic acid], the MIC Staphylococcus aureus F-1 (Staphylococcus aureus) is reported as 12.5 µg/mL, the MIC Staphylococcus aureus F-2 (Staphylococcus aureus) is reported as 3.13 µg/mL and the MIC Staphylococcus aureus F-4 (Staphylococcus aureus) is reported as 6.25 µg/mL. For the same compound, the MIC Staphylococcus aureus MS 8588 (Staphylococcus aureus) was 6.25 µg/mL, the MIC Staphylococcus aureus MS 8596 (Staphylococcus aureus) was 3.13 µg/mL and the MIC Staphylococcus aureus MS 8684 (Staphylococcus aureus) was 3.13 µg/mL. The MIC Staphylococcus aureus MS 8713 (Staphylococcus aureus) was 3.13 µg/mL, the MIC Escherichia coli GN 3435 (Escherichia coli; Table 5-2, clinical isolate) was 6.25 µg/mL and the MIC Escherichia coli GN 3452 (Escherichia coli; Table 5-2, clinical isolate) was 12.5 µg/mL. For the same compound, the MIC Escherichia coli GN 3481 (Escherichia coli; Table 5-2, clinical isolate) was 12.5 µg/mL, the MIC Escherichia coli K-1 (Escherichia coli; Table 5-2, clinical isolate) was 6.25 µg/mL and the MIC Escherichia coli K-4 (Escherichia coli; Table 5-2, clinical isolate) was 12.5 µg/mL. It also gave an MIC Shigella flexneri JS 11215 (Shigella flexneri) of 100 µg/mL, an MIC Shigella flexneri JS 11839 (Shigella flexneri) of 3.13 µg/mL and an MIC Shigella sonnei JS 11232 (Shigella sonnei) greater than 200 µg/mL. The MIC Shigella sonnei JS 11755 (Shigella sonnei) was 12.5 µg/mL.
With `Cc1nnc(SCC2=C(C(=O)O)N3C(=O)[C@@H](NC(=O)Cn4cnnn4)[C@H]3SC2)s1` [Sodium Cephazolin, reference compound] the MIC Escherichia coli GN 3435 (Escherichia coli; Table 6-2, clinical isolate) was 1.56 µg/mL, the MIC Escherichia coli GN 3452 (Escherichia coli; Table 6-2, clinical isolate) was 1.56 µg/mL and the MIC Escherichia coli GN 3481 (Escherichia coli; Table 6-2, clinical isolate) was 1.56 µg/mL. For the same compound, the MIC Escherichia coli K-1 (Escherichia coli; Table 6-2, clinical isolate) was 1.56 µg/mL, the MIC Escherichia coli K-2 (Escherichia coli; Table 6-2, clinical isolate) was 1.56 µg/mL and the MIC Escherichia coli K-4 (Escherichia coli; Table 6-2, clinical isolate) was 3.13 µg/mL. It also gave an MIC Pseudomonas aeruginosa GN4 (Pseudomonas aeruginosa; Table 6-3, clinical isolate) greater than 200 µg/mL, an MIC Pseudomonas aeruginosa S-4 (Pseudomonas aeruginosa; Table 6-4, clinical isolate) greater than 200 µg/mL and an MIC Klebsiella pneumoniae GN 917 (Klebsiella pneumoniae [4]) of 1.56 µg/mL. For the same compound, the MIC Klebsiella pneumoniae GN 4081 (Klebsiella pneumoniae [4]) was 3.13 µg/mL and the MIC Klebsiella pneumoniae GN 4117 (Klebsiella pneumoniae [4]) was 3.13 µg/mL.
`CN1CCN(C(=O)NC(C(=O)N[C@@H]2C(=O)N3[C@@H]2SC(C)(C)[C@@H]3C(=O)O)c2cccs2)C(=O)C1=O` (some centres unmarked) [compound 58] was tested, and the MIC Esche--richin coil NIHJ (Escherichia coli NIHJ) was less than 1.57 µg/mL and the MIC Staphylococcus aureus 209p [2] was less than 1.57 µg/mL.
For `CC1(C)S[C@@H]2[C@H](NC(=O)[C@H](N)c3ccccc3)C(=O)N2[C@H]1C(=O)O` [drawing 185, reference compound], the MIC Esche--richin coil NIHJ (Escherichia coli NIHJ) was less than 1.57 µg/mL and the MIC Staphylococcus aureus 209p [2] was less than 1.57 µg/mL.
For `CC1(C)S[C@@H]2[C@H](NC(=O)C(c3ccccc3)S(=O)(=O)O)C(=O)N2[C@H]1C(=O)O` (some centres unmarked) [drawing 187, reference compound], the MIC Esche--richin coil NIHJ (Escherichia coli NIHJ) was 1.57 µg/mL (≈ 3.79 µM).
In the case of `CC(=O)N1CCN(C(=O)N[C@@H](C(=O)N[C@@H]2C(=O)N3[C@@H]2SC(C)(C)[C@@H]3C(=O)O)c2ccccc2)C(=O)C1` [drawing 188], the MIC Klebsiella pneumoniae (Klebsiella pneumoniae [1]; Table 3, standard strain) is reported as 12.5 µg/mL (≈ 24.2 µM) and the MIC Proteus vulgaris 3027 (Proteus vulgaris 3027; Table 3, standard strain) is reported as 3.13 µg/mL (≈ 6.05 µM).
`CC(=O)OCC1=C(C(=O)O)N2C(=O)[C@@H](NC(=O)[C@H](N)c3ccccc3)[C@H]2SC1` [drawing 247, reference compound] was tested, and the MIC Klebsiella pneumoniae (Klebsiella pneumoniae [1]; Table 4, standard strain) was less than 1.57 µg/mL and the MIC Proteus vulgaris 3027 (Proteus vulgaris 3027; Table 4, standard strain) was 100 µg/mL (≈ 247 µM).
`Cc1nnc(SCC2=C(C(=O)O)N3C(=O)[C@@H](NC(=O)Cn4cnnn4)[C@H]3SC2)s1` [drawing 249, reference compound] showed an MIC Klebsiella pneumoniae (Klebsiella pneumoniae [1]; Table 4, standard strain) of 1.57 µg/mL (≈ 3.45 µM) and an MIC Proteus vulgaris 3027 (Proteus vulgaris 3027; Table 4, standard strain) of 200 µg/mL (≈ 440 µM).
